Assay results from article PMC9378703 (Nature Communications, 2022).

Columns and labels:
Uba1 [1] = target: T1, Uba1 (Saccharomyces cerevisiae, UniProt P22515, D544E); assay: colorimetric ATPase assay (BIOMOL-GREEN phosphate, pyrophosphatase-coupled); assay type: biochemical; details: 80 μM ubiquitin, 1 mM ATP, 2 mM MgCl2, pH 7.5, 30 °C; turnover
T1 construct: residues 10-1024; N-terminal His-tag (pET28a); expressed in E. coli BL21 (DE3)

Uba1 [2] = target: T2, Uba1 (Saccharomyces cerevisiae, UniProt P22515, D472A); assay: as above; assay type: biochemical; details: 80 μM ubiquitin, 1 mM ATP, 2 mM MgCl2, pH 7.5, 30 °C; turnover
T2 construct: residues 10-1024; N-terminal His-tag (pET28a); expressed in E. coli BL21 (DE3)
T2 sequence (P22515 10-1024 D472A): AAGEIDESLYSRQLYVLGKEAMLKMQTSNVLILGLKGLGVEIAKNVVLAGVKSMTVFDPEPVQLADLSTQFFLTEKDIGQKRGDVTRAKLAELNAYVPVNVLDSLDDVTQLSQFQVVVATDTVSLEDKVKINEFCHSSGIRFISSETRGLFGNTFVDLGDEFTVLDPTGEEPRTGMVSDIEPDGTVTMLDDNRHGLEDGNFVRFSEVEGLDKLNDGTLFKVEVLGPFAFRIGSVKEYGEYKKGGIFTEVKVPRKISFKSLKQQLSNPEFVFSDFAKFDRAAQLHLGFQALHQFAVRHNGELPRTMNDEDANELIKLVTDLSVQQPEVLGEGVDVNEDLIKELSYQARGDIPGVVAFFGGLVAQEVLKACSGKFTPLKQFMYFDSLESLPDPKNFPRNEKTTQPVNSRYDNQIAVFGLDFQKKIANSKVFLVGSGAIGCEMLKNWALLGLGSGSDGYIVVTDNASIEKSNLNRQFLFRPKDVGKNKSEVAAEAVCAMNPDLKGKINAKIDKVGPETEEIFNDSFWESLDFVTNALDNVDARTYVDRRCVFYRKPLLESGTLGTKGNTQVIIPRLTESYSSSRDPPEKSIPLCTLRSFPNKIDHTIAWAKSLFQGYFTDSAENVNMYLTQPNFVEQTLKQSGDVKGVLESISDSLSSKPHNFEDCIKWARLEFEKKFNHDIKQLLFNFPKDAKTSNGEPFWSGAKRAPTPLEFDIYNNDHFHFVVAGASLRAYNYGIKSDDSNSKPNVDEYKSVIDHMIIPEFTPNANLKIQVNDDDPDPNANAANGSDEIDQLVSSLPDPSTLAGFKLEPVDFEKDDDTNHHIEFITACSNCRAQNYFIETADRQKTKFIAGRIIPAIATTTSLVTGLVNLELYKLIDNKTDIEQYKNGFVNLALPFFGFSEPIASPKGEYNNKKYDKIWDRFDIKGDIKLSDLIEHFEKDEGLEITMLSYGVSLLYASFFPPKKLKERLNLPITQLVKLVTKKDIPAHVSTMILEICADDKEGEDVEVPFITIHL

T1 sequence (P22515 10-1024 D544E): as the sequence (P22515 10-1024 D472A) above, with A463D, D535E counted along it

Nc1ncnc2c1ncn2[C@@H]1O[C@H](COP(=O)(O)OP(=O)(O)OP(=O)(O)O)[C@@H](O)[C@H]1O [ATP]
colorimetric ATPase assay (BIOMOL-GREEN phosphate, pyrophosphatase-coupled) (Uba1 [1]): the D472A variant retained full activity as did the D472E or D544E substitutions
colorimetric ATPase assay (BIOMOL-GREEN phosphate, pyrophosphatase-coupled) (Uba1 [2]): the D472A variant retained full activity as did the D472E or D544E substitutions
